Source: patent US20180353483A1, “PHARMACEUTICAL COMPOSITIONS AND METHODS FOR INDOLEAMINE, 2, 3-DIOXYGENASE INHIBITION AND INDICATIONS THEREFOR” (Incyte Corporation, priority 2015, published 2018)

Assays:
[1] = Preclinical PK, renal excretion after IV dose, mice; assay type: in vivo
[2] = Preclinical PK, cynomolgus monkeys; assay type: in vivo

NS(=O)(=O)NCCNc1nonc1C(=NO)Nc1ccc(F)c(Br)c1 [Compound 1, 4-({2-[(aminosulfonyl)amino]ethyl}amino)-N-(3-bromo-4-fluorophenyl)-N′-hydroxy-1,2,5-oxadiazole-3-carboximidamide]
renal excretion of unchanged compound [1]: less than 3 % of IV dose | systemic clearance in percent hepatic blood flow ([2]; cynomolgus monkey): 31% | fraction of oral dose absorbed (Fa) ([2]; cynomolgus monkeys, estimated from preclinical PK studies (not shown)): 48% | renal excretion of unchanged compound ([2]; monkeys): less than 3 % of IV dose
